Read-outs that look alike come from different tables or passages of the source.
How the values were obtained:
[1] = Evaluation of the azeotropic behaviour: boiling temperature at 1.013 bar; assay type: physicochemical; details: pressure of 1.013 absolute bar
Procedure: The mixture of known composition and weight is introduced into a small glass cell, previously evacuated, having an internal volume equal to about 20 cm^3, equipped with metal connections, feeding valve and with a pressure transducer to evaluate the system vapour pressure.
The filling ratio by volume is initially equal to about 0.8% by v.
The temperature is measured close to the equilibrium cell by a thermometer the accuracy of which is equal to +/−0.01° C.; particular attention has been paid so that the external temperature measured in the bath is really the internal one of the cell.
By changing the composition of the mixture it is possible to evaluate possible deviations with respect to the ideality and therefore to identify the azeotropic composition which, as said, will be characterized by an absolute minimum or maximum with respect to the pure components.

[2] = solubility of propellants in solvent compositions for aerosol applications; assay type: physicochemical
Procedure: The solubility of HFC 134a, HFC 227ea and HFC 236ea with some solvent compositions for aerosol applications for the cleaning of electronic components has been studied. The solvent composition is placed in a glass test tube having thick walls, resistant to high pressures, and closed at an end by a metal valve. After cooling, the propellant is fed to the test tube and mixed with the solvent mixture. The system is introduced in a thermostatic bath and heated up to 0°, 25° and 50° C. The complete solubility of the propellant in the solvent composition used for the test has been visually observed. The solubility results of the used propellants in the solvent compositions, at the above three different temperatures, are reported in Table 7.

[3] = Preliminary studies relating to acute toxicity; assay type: in vivo
rat [4] = test: Acute toxicity in rat by os, LD50
rat [5] = test: Acute toxicity in rat by inhalation, LC50
[6] = chemical-physical properties of the hydrofluoropolyether
[7] = background statement; cited from earlier work
[8] = Removal of oily products from printed circuits, oil (1); details: 5 minutes of dipping
Procedure: (§1) The removal capability of oily products from printed circuits has been checked according to the following procedure:
(§2) a known amount of an oily product is uniformly spread on the surface of a printed circuit having 35×9 mm sizes; 0.100 g of oil are placed only on a single surface of the circuit, then the article is dipped into the solution to be tested.
(§3) After 5 minutes of dipping, the circuit is allowed to dry for additional 5 minutes at room temperature so as to remove the solvent traces and then is weighed again on an analytical balance.
[…] The compositions are placed in a vessel equipped with a condenser which recovers the vapour of the boiling solution.
(§4) In all the tests 30 ml of the solvent solution have been used.
(§5) The results are reported in Table 6 and are expressed as removed oil percentage.

[9] = Removal of oily products from printed circuits, oil (2); details: 5 minutes of dipping
Procedure: as §1, §2, §3
(§6) Tests of the solvent mixtures are carried out close to the boiling temperature. The compositions are placed in a vessel equipped with a condenser which recovers the vapour of the boiling solution.
as §4, §5

[10] = Removal of oily products from printed circuits, oil (3); details: 5 minutes of dipping
Procedure: as §1, §2, §3, §6, §4, §5

[11] = Removal of oily products from printed circuits, oil (4); details: 5 minutes of dipping
Procedure: as §1, §2, §3, §6, §4, §5

COC(C)=O [Methyl-acetate, methyl-acetate]
Boiling T of pure Component B [1]: Boiling T = 55.78 °C

FCC(F)(F)F [HFC 134a, 1,1,1,2-tetrafluoroethane]
solubility of the propellant in the solvent composition ([2]; in HCF2OCF2CF2OCF2H/Bromo-propane (75.0) (25.0), propellant 57.2 % by wt, 0 ° C.): S
solubility of the propellant in the solvent composition ([2]; in HCF2OCF2CF2OCF2H/Bromo-propane (75.0) (25.0), propellant 57.2 % by wt, 25 ° C.): S
solubility of the propellant in the solvent composition ([2]; in HCF2OCF2CF2OCF2H/Bromo-propane (75.0) (25.0), propellant 57.2 % by wt, 50 ° C.): S
solubility of the propellant in the solvent composition ([2]; in HCF2OCF2CF2OCF2H/Isopentane (45.0) (55.0), propellant 51.2 % by wt, 0 ° C.): S
solubility of the propellant in the solvent composition ([2]; in HCF2OCF2CF2OCF2H/Isopentane (45.0) (55.0), propellant 51.2 % by wt, 25 ° C.): S
solubility of the propellant in the solvent composition ([2]; in HCF2OCF2CF2OCF2H/Isopentane (45.0) (55.0), propellant 51.2 % by wt, 50 ° C.): S
solubility of the propellant in the solvent composition ([2]; in HCF2OCF2CF2OCF2H/Methyl-acetate (75.0) (25.0), propellant 51.3 % by wt, 0 ° C.): S
solubility of the propellant in the solvent composition ([2]; in HCF2OCF2CF2OCF2H/Methyl-acetate (75.0) (25.0), propellant 51.3 % by wt, 25 ° C.): S
solubility of the propellant in the solvent composition ([2]; in HCF2OCF2CF2OCF2H/Methyl-acetate (75.0) (25.0), propellant 51.3 % by wt, 50 ° C.): S

FC(F)C(F)C(F)(F)F (centres unmarked) [HFC 236ea, 1,1,1,2,3,3-hexafluoropropane]
solubility of the propellant in the solvent composition [2]: S

FC(F)OC(F)(F)C(F)(F)OC(F)F [HCF2OCF2CF2OCF2H, 1-difluoromethoxy-1,1,2,2-tetrafluoroethyl difluoromethyl ether]
acute toxicity, biological activity [3]: low biological activity
Acute toxicity in rat by os, LD50 (rat [4]): >5,000 ppmv/4 hours
Acute toxicity in rat by inhalation, LC50 (rat [5]): >32,000 ppmv/4 hours
dehydrofluorination reactions (chemical stability) [6]: does not undergo dehydrofluorination reactions
Isotherm evaporation rate at 20° C. [6]: 0.6 mg/min
Surface tension at 20° C. [6]: 15.5 dynes/cm
Liquid density at 25° C. [6]: 1.60 g/mL
Boiling temperature ([6]; at 1.013 bar): 58.21 °C
Evaporation latent heat ([6]; at 1.013 bar): 139 kJ/kg
Flammability in air [6]: non

FC(C(F)(F)F)C(F)(F)F [HFC 227ea, 1,1,1,2,3,3,3-heptafluoropropane]
solubility of the propellant in the solvent composition ([2]; in HCF2OCF2CF2OCF2H/Methyl-acetate (75.0) (25.0), propellant 53.2 % by wt, 0 ° C.): S
solubility of the propellant in the solvent composition ([2]; in HCF2OCF2CF2OCF2H/Methyl-acetate (75.0) (25.0), propellant 53.2 % by wt, 25 ° C.): S
solubility of the propellant in the solvent composition ([2]; in HCF2OCF2CF2OCF2H/Methyl-acetate (75.0) (25.0), propellant 53.2 % by wt, 50 ° C.): S

CC(F)(Cl)Cl [HCFC 141b]
flammability [7]: moderately flammable

FC(F)(Cl)C(F)(Cl)Cl [CFC 113, 1,1,2-trichloro-1,2,2-trifluoroethane]
Percentage of removed oil, oil type (1) ([8]; 23 ° C.): 100 % by weight
Percentage of removed oil, oil type (1) ([8]; 47 ° C.): 100 % by weight
Percentage of removed oil, oil type (2) ([9]; 23 ° C.): 99.5 % by weight
Percentage of removed oil, oil type (2) ([9]; 47 ° C.): 100 % by weight
Percentage of removed oil, oil type (3) ([10]; 23 ° C.): 100 % by weight
Percentage of removed oil, oil type (3) ([10]; 47 ° C.): 100 % by weight
Percentage of removed oil, oil type (4) ([11]; 23 ° C.): 100 % by weight
Percentage of removed oil, oil type (4) ([11]; 47 ° C.): 100 % by weight
Acute toxicity in rat by os, LD50 (rat [4]): 43,000 ppmv/4 hours
Acute toxicity in rat by inhalation, LC50 (rat [5]): 50,000 ppmv/4 hours
Isotherm evaporation rate at 20° C. [6]: 1 mg/min
Surface tension at 20° C. [6]: 18.1 dynes/cm
Liquid density at 25° C. [6]: 1.56 g/mL
Evaporation latent heat ([6]; at 1.013 bar): 144 kJ/kg
Flammability in air [6]: non

CCCBr [1-Bromo-propane, 1-bromo-propane]
Boiling T of pure Component B [1]: Boiling T = 69.60 °C
